ChEMBL document CHEMBL5543140 (J Med Chem, 2024)
Active and inactive are the calls of the source. No cut-off for these calls is given here.

How the values were obtained:
[1] = target: T1, 5-hydroxytryptamine receptor 2A (Homo sapiens, UniProt P28223); test: Displacement of [3H]LSD from human 5-HT2A receptor expressed in HEK293 cell membrane incubated for 90 mins by microbeta liquid scintillation counting method; assay type: cell membranes
[2] = Metabolic stability of the compound assessed as recombinant human MAO-mediated oxidative metabolism by measuring compound remaining measured upto 120 mins by LC-MS/MS analysis; assay type: ADME; conditions: 2 h
[3] = Metabolic stability in Sprague-Dawley rat liver microsomes assessed as deuteration effect measured upto 120 mins by LC-MS/MS analysis; assay type: ADME, Microsome; conditions: 2 h
Mus musculus [4] = test: Psychedelic effect in C57BL/6J mouse assessed as number of head-twitch responses by visual observation at 3 mg/kg, po measured for 3 mins at 160 to 170 min; assay type: functional; conditions: 0.05 h
[5] = target: T2, 5-hydroxytryptamine receptor 2C (Homo sapiens, UniProt P28335); test: Displacement of [3H]LSD from human 5-HT2C receptor expressed in HEK293 cell membrane incubated for 90 mins by microbeta liquid scintillation counting method; assay type: cell membranes
T2 sequence (P28335 whole entry): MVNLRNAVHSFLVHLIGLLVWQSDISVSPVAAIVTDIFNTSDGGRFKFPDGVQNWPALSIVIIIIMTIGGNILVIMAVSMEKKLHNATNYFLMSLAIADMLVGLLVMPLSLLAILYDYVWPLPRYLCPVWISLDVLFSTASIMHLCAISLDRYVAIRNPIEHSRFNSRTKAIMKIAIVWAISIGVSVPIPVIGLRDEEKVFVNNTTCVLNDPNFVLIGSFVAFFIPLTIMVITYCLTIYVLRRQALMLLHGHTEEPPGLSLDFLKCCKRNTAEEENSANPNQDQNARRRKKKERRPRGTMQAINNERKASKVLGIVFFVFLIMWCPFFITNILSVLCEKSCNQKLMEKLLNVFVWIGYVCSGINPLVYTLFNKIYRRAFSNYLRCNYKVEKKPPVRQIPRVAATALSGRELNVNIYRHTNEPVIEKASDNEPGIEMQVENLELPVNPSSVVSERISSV

Mus musculus [6] = test: Psychedelic effect in C57BL/6J mouse assessed as number of head-twitch responses by visual observation at 3 mg/kg, po measured for 3 mins at 5 to 25 min; assay type: functional; conditions: 0.05 h
[7] = target: 5-hydroxytryptamine receptor 2B (Homo sapiens, UniProt P41595); test: Displacement of [3H]LSD from human 5-HT2B receptor expressed in HEK293 cell membrane incubated for 90 mins by microbeta liquid scintillation counting method; assay type: cell membranes
Chain of 5-hydroxytryptamine receptor 2B (P41595 whole entry): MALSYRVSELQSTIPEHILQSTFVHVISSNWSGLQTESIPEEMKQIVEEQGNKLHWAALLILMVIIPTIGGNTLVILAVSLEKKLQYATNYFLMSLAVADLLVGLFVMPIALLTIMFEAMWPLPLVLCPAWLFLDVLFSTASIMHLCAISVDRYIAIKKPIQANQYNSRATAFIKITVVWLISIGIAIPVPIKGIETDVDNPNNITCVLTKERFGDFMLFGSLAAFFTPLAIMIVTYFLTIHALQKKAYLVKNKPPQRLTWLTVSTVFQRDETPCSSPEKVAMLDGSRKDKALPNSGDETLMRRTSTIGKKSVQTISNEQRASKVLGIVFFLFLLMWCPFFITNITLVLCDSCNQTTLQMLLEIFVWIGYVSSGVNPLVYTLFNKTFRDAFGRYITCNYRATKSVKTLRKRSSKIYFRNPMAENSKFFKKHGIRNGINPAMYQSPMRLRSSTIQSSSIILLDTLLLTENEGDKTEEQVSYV

[8] = target: T1, 5-hydroxytryptamine receptor 2A; test: Agonist activity at human 5-HT2A receptor expressed in HEK293 cells assessed as IP2 production measured after 30 mins incubation by HTRF assay; assay type: functional, cell-based; conditions: read-out: EC50
[9] = target: T1, 5-hydroxytryptamine receptor 2A; test: Agonist activity at human 5-HT2A receptor expressed in HEK293 cells assessed as maximal IP2 production measured after 30 mins incubation by HTRF assay relative to control; assay type: functional, cell-based; conditions: filed as agonist
Mus musculus [10] = test: Psychedelic effect in C57BL/6J mouse assessed as number of head-twitch responses by visual observation at 3 to 30 mg/kg, po; assay type: functional, organism-based; conditions: dose 3-30 mg/kg
[11] = Chemical stability of the compound in water measured for 5 days; assay type: physicochemical; conditions: buffer, 120 h; time 5 day
[12] = Chemical stability of the compound in buffer solution at pH 1 to 6.8 measured for 5 days; assay type: physicochemical; conditions: pH 1, 120 h, time 5 day

T1 sequence (P28223 whole entry): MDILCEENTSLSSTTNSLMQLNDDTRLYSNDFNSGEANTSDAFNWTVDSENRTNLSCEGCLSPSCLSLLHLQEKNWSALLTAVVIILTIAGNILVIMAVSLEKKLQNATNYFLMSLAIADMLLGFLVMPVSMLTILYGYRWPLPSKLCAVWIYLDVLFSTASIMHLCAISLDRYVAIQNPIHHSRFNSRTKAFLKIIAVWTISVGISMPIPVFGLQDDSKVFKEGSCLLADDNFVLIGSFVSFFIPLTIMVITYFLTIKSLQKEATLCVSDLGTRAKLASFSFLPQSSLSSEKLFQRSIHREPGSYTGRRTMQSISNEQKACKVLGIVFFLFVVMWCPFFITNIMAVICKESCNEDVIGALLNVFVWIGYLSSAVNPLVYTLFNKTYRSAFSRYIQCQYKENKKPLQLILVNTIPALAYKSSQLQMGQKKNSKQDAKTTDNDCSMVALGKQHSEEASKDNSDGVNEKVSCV

| Compound | Ki ([1]; read-out: Ki) [nM] | Activity (Mus musculus [4]) | Ki [5] [nM] | Activity (Mus musculus [6]) | Ki [7] [nM] | further results |
| --- | --- | --- | --- | --- | --- | --- |
| COc1cc(C2CCCC2)c(OC)cc1CCN | 134 | – | – | – | – | – |
| Cl.[2H]C([2H])(N)Cc1cc(OC)c(C(F)(F)F)cc1OC | – | – | – | – | – | Stability [2]: Stable; Stability [3]: Stable |
| COc1cc(C[C@H](C)N)c(O)cc1SC.Cl | – | – | – | – | – | Stability [2]: Stable; Stability [3]: Stable |
| COc1cc([S+]([O-])C(F)F)c(OC)cc1CCN.Cl (configuration not stated) | 27 | 4 | 82 | 3 | 26 | – |
| COc1cc(SCCCF)c(OC)cc1CCN | – | 4.7 | 6.9 | 7.4 | 6.2 | – |
| COc1cc(S(=O)(=O)CF)c(OC)cc1CCN.Cl | 5.9 | 2.3 | 26 | 1.7 | 28 | Ki ([1]; read-out: pKi (converted)): 6.03 nM |
| COc1cc(SCC(F)(F)C(F)F)c(OC)cc1CCN.Cl | 34 | 5.6 | 11 | 3.1 | 4.5 | Ki ([1]; read-out: pKi (converted)): 38 nM |
| COc1cc([S+]([O-])C(F)(F)F)c(OC)cc1CCN.Cl (configuration not stated) | 19 | 18 | 21 | 17 | 6.5 | – |
| C#CCCCSc1cc(OC)c(CCN)cc1OC | 2.3 | – | – | – | – | EC50 [8]: 1.8 nM; Emax [9]: 78% |
| COc1cc(SSC(C)(C)C)c(OC)cc1CCN.Cl | 59 | 4.8 | 26 | 0.6 | 10 | – |
| COc1cc(SC(F)(F)F)c(OC)cc1CCNCC1CC1 | 8.9 | – | – | – | – | Activity (Mus musculus [10]): inactive; EC50 [8]: 48 nM; Emax [9]: 63% |
| COc1cc(SC(F)(F)F)c(OC)cc1CC(C)N (configuration not stated) | – | – | – | – | – | EC50 [8]: 5.4 nM; Emax [9]: 91% |
| COc1cc(OCCC(F)F)c(OC)cc1CCN | 387 | – | – | – | – | – |
| COc1cc(CCN)cc(OC)c1SC(F)(F)F | 45 | – | – | – | – | EC50 [8]: 41 nM; Emax [9]: 96% |
| COc1cc(SC)c(OC)cc1C[C@@H](C)N.Cl | – | – | – | – | – | Stability [2]: Stable; Stability [3]: Stable |
| COc1cc(S(=O)(=O)C(F)F)c(OC)cc1CCN.Cl | 11 | 1.7 | 83 | 5 | 20 | – |
| COc1cc(SCC#N)c(OC)cc1CCN | 36 | – | – | – | – | EC50 [8]: 6.1 nM; Emax [9]: 77% |
| COc1cc(SC(F)(F)F)c(OC)cc1CCN.Cl | – | 30 | – | 21 | – | Stability [11]: Stable; Stability [12]: Stable |
| C#CCSc1cc(OC)c(CCN)cc1OC | – | – | – | – | – | EC50 [8]: 0.67 nM; Emax [9]: 100% |
| Cl.[2H]C([2H])(N)Cc1cc(OC)c(SC)cc1OC | – | – | – | – | – | Stability [2]: Stable; Stability [3]: Stable |
| COc1cc(SCCC(F)F)c(OC)cc1CCN.Cl | 23 | 2.6 | 8.9 | 5 | 6.8 | – |
